Assay results reported in patent publication US10947223B2, “Substituted oxazines as beta-secretase inhibitors” (AMGEN INC., priority 2016, dated 2021).

Assays:
[1] = molecular target: Recombinant CatD (Homo sapiens (Human), UniProt P07339); assay: In vitro enzymatic Cathepsin D (CatD) FRET assay; assay type: biochemical; settings: pH 3.5, read-out: CatD Enzyme IC50
Procedure: In Vitro Enzymatic Cathepsin D (CatD) FRET Assay
Recombinant CatD was expressed in CHO cells. The assay buffer for CatD was 0.05 M citrate pH 3.5, 10% DMSO final, 5 mM CHAPS. The CatD enzyme (9 nM) was pre-incubated for one hour with inhibitors, typically in about 1 uL of DMSO according to a serial dilution, is added thereto. The assays was effectively started by the addition of different FRET substrates (20 nM for CatD) and the combination was incubated for one hour. The FRET assay was terminated with by addition of tris buffer, which raises the pH to neutrality, and the fluorescence was determined. The FRET substrate was a peptide with commercially available fluorophore and quencher, on opposite sides of the CatD cleavage site. The CatD substrate peptide sequence was based on sequence #1 of Table 1 from Gulnik et al., FEBS Lett. 413(2):379-384 (1997). Proteolytic cleavage of the FRET substrate released quenching of fluorescence (CatD excitation 500 nm and emission 580 nm).
The in vitro CatD FRET assay data for each of the Examples is provided in Table 2, conducted by the first procedure described above. […] Thus, with this surprising selectivity profile, the compounds provided herein are believed to minimize, reduce or completely eliminate any risk of retinal atrophy and abnormal development of the eye and of the retinal pigmented epithelium as it relates to the normal function and activity of CatD.

[2] = molecular target: T1, BACE1 (Homo sapiens (Human), UniProt P56817); assay: In vitro enzymatic BACE1 FRET assay; assay type: biochemical; settings: pH 4.5, read-out: BACE1 Enzyme IC50
Procedure: (§1) In Vitro Enzymatic BACE1 and BACE2 FRET (Fluorescence Resonance Energy Transfer) Assays
(§2) The cDNAs for both human recombinant BACE1 and 2 with C-terminal 6-His Tags were cloned into transient protein expression vectors, which were subsequently transfected into mammalian cell lines. These recombinant proteins were further purified using Ni-NTA affinity chromatography (Qiagen). The assay buffer used in these screens was 0.05 M acetate, pH 4.5, 8% DMSO final, 100 μM genapol (which is a nonionic detergent, below its Critical Micelle Concentration). The β-secretase enzyme (0.02 nM for BACE1 and 0.64 nM for BACE2), which was pre-incubated for one hour with the test compound, typically in about 1 uL of DMSO according to a serial dilution, was added thereto. The assay was effectively started by the addition of FRET substrate (50 nM) and the combination was incubated for one hour. The FRET assay was terminated by the addition of tris buffer, which raised the pH to neutrality, and the fluorescence was determined. The FRET substrate was a peptide with commercially available fluorophore and quencher, on opposite sides of the BACE cleavage site. The specific FRET substrate used in this assay was made by Amgen in-house. Commercially available FRET substrates, for example, the FRET substrate offered with the BACE1 FRET Assay Kit sold by ThermoFisher Scientific (Catalog Number P2985), may be used in this assay with the appropriate modifications, which are within the purview of the ability of a person with ordinary skill in the art. Proteolytic cleavage of the FRET substrate released quenching of fluorescence (excitation 488 nm and emission 590 nm).
Target sequence in this assay (P56817 46-501): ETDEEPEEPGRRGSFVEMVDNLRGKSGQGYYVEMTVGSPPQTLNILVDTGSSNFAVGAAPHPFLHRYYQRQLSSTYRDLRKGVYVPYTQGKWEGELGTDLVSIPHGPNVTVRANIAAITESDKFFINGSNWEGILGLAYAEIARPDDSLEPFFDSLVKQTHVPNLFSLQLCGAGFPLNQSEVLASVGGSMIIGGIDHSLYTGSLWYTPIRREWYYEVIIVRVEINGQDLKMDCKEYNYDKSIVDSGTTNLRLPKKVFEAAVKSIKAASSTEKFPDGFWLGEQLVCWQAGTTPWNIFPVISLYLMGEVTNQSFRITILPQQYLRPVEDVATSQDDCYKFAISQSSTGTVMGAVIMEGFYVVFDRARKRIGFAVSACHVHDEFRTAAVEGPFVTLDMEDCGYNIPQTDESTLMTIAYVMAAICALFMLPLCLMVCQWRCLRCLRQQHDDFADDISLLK

[3] = molecular target: human recombinant BACE2 (Homo sapiens (Human), UniProt Q9Y5Z0); assay: In vitro enzymatic BACE2 FRET assay; assay type: biochemical; settings: pH 4.5, read-out: BACE2 Enzyme IC50
Procedure: as §1, §2

[4] = molecular target: T1, BACE1; assay: In vitro BACE1 cell-based assay (Aβ40 in conditioned medium, HTRF); settings: Aβ40 in conditioned medium of cells expressing APP, 24 h
Procedure: In Vitro BACE1 Cell-Based Assay
The cell-based assay measures inhibition or reduction of Aβ40 in conditioned medium of test compound treated cells expressing amyloid precursor protein. Cells stably expressing Amyloid Precursor Protein (APP) were plated at a density of 45K cells/well in 384 well plates (Corning/BioCoat 354663). The test compounds were then added to cells in 22-point dose response concentrations with the starting concentration being 62.5 μM. The compounds were diluted from stock solutions in DMSO and the final DMSO concentration of the test compounds on cells was 0.625%. The cells were cultivated overnight at 37° C. and 5% CO2 in DMEM supplemented with 10% FBS. After 24 h of incubation with the test compounds, the conditioned media was collected and the Aβ40 levels were determined using HTRF (Homogeneous Time Resolved Fluorescence). The IC50 of the compound was calculated from the percent of control or percent inhibition of Aβ 40 as a function of the concentration of the test compound.
The HTRF to detect Aβ40 was performed in 384 well plates (Costar 3658). The antibody pair that were used to detect Aβ 40 from cell supernatants were ConfAb40 antibody (Amgen in-house) and biotinylated 6E10 (BIOLEGEND). As an alternative to ConfAb40, a commercially available antibody, Anti-beta Amyloid 1-40 antibody [BDI350] from Abcam, Cambridge, Mass. 02139-1517 (Product code: ab20068), may be used in this assay. The concentrations were 0.35 μg/mL of ConfAb40 antibody and 1.33 μg/mL of 6E10-biotinylated antibody, as well as 4.5 μg/mL of Streptavidin Allophycocyanin Conjugate (ThermoFisher Scientific) in HTRF Buffer ([…], 1% BSA, 0.5% Tween 20).
The conditioned media was incubated with above antibodies and Streptavidin Allophycocyanin Conjugate for 30-60 minutes at 23° C. The final readout was performed on Envision from PerkinElmer.
Target sequence in this assay (P56817 46-501, species assumed): as the sequence (P56817 46-501) above

Chain of human recombinant BACE2 (Q9Y5Z0 63-518): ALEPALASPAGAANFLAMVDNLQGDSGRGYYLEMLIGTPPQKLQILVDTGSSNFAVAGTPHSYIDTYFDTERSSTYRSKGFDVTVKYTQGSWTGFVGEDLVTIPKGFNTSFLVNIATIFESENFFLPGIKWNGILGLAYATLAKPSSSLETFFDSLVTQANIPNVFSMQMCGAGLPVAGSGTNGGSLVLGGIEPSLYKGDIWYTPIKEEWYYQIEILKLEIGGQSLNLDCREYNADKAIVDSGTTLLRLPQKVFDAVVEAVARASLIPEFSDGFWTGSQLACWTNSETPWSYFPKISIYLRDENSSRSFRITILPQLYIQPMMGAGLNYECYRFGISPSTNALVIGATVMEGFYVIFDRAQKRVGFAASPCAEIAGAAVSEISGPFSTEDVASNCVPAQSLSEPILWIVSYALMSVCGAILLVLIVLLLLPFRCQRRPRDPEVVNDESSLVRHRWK
Chain of Recombinant CatD (P07339 65-412): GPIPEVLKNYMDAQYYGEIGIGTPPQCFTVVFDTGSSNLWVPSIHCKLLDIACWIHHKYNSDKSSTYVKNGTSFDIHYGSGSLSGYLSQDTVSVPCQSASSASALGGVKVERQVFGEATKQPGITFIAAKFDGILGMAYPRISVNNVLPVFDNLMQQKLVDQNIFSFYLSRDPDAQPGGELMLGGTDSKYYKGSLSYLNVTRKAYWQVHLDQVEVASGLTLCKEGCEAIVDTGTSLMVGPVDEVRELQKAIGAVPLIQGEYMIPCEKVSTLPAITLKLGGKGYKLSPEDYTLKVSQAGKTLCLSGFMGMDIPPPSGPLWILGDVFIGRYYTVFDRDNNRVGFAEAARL

| SMILES | IC50 [1] [µM] | IC50 [2] [nM] | IC50 [3] [nM] | IC50 [4] [nM] |
| --- | --- | --- | --- | --- |
| NC1=N[C@@](c2cc(/C=C(\F)c3ccc(Br)cn3)ccc2F)(C(F)F)[C@H]2C[C@H]2O1 [Example 100, (1R,5S,6R)-5-(5-((Z)-2-(5-bromopyridin-2-yl)-2-fluorovinyl)-2-fluorophenyl)-5-(difluoromethyl)-2-oxa-4-azabicyclo[4.1.0]hept-3-en-3-amine] | 63.9 | 257 | 564 | 948 |
| NC1=N[C@@](c2cc(/C=C(\F)c3ccc(Cl)cn3)ccc2F)(C(F)F)[C@H]2C[C@H]2O1 [Example 101, (1R,5S,6R)-5-(5-((Z)-2-(5-chloropyridin-2-yl)-2-fluorovinyl)-2-fluorophenyl)-5-(difluoromethyl)-2-oxa-4-azabicyclo[4.1.0]hept-3-en-3-amine] | 215 | 954 | 421 | 1120 |
| N#Cc1ccc(/C(F)=C/c2ccc(F)c([C@@]3(C(F)F)N=C(N)O[C@@H]4C[C@@H]43)c2)nc1 [Example 102, 6-((Z)-2-(3-((1R,5S,6R)-3-amino-5-(difluoromethyl)-2-oxa-4-azabicyclo[4.1.0]hept-3-en-5-yl)-4-fluorophenyl)-1-fluorovinyl)nicotinonitrile] | 222 | 152 | 1620 | 344 |
| C[C@@]1(c2cc(/C=C(\F)c3ccc(Cl)cn3)ccc2F)CO[C@@](C)(C(F)(F)F)C(N)=N1 [Example 103, (2R,5R)-5-(5-((Z)-2-(5-chloropyridin-2-yl)-2-fluorovinyl)-2-fluorophenyl)-2,5-dimethyl-2-(trifluoromethyl)-5,6-dihydro-2H-1,4-oxazin-3-amine] | 19.2 | 65 | 17 | 693 |
| C[C@@]1(c2cc(/C=C(\F)c3ccc(C#N)cn3)ccc2F)CO[C@@](C)(C(F)(F)F)C(N)=N1 [Example 104, 6-((Z)-2-(3-((3R,6R)-5-amino-3,6-dimethyl-6-(trifluoromethyl)-3,6-dihydro-2H-1,4-oxazin-3-yl)-4-fluorophenyl)-1-fluorovinyl)nicotinonitrile] | 204 | 26 | 95 | 152 |
| C[C@@]1(c2cc(/C=C(\F)c3cnc(C#N)cn3)ccc2F)CO[C@@](C)(C(F)(F)F)C(N)=N1 [Example 105, 5-((Z)-2-(3-((3R,6R)-5-amino-3,6-dimethyl-6-(trifluoromethyl)-3,6-dihydro-2H-1,4-oxazin-3-yl)-4-fluorophenyl)-1-fluorovinyl)pyrazine-2-carbonitrile] | 415 | 46 | 273 | 130 |
| C[C@@]1(c2cc(/C=C(\F)c3cnc(OCC(F)(F)C(F)F)cn3)ccc2F)CO[C@@](C)(C(F)(F)F)C(N)=N1 [Example 106, (2R,5R)-5-(2-fluoro-5-((Z)-2-fluoro-2-(5-(2,2,3,3-tetrafluoropropoxy)pyrazin-2-yl)vinyl)phenyl)-2,5-dimethyl-2-(trifluoromethyl)-5,6-dihydro-2H-1,4-oxazin-3-amine] | 88.4 | 666 | 1590 | 4130 |
| C#CCOc1cnc(/C(F)=C/c2ccc(F)c([C@]3(C)CO[C@@](C)(C(F)(F)F)C(N)=N3)c2)cn1 [Example 107, (2R,5R)-5-(2-fluoro-5-((Z)-2-fluoro-2-(5-(prop-2-yn-1-yloxy)pyrazin-2-yl)vinyl)phenyl)-2,5-dimethyl-2-(trifluoromethyl)-5,6-dihydro-2H-1,4-oxazin-3-amine] | 82.5 | 50 | 375 | 112 |
| C[C@@]1(c2cc(/C=C(\F)c3cnc(Cl)cn3)ccc2F)CO[C@@](C)(C(F)(F)F)C(N)=N1 [Example 108, (2R,5R)-5-(5-((Z)-2-(5-chloropyrazin-2-yl)-2-fluorovinyl)-2-fluorophenyl)-2,5-dimethyl-2-(trifluoromethyl)-5,6-dihydro-2H-1,4-oxazin-3-amine] | 39.3 | 118 | 33 | 663 |
| C[C@]1(c2cc(/C=C(\F)c3ccc(C#N)cn3)ccc2F)N=C(N)OC[C@@H]1OCC(F)(F)F [Example 109, 6-((Z)-2-(3-((4R,5R)-2-amino-4-methyl-5-(2,2,2-trifluoroethoxy)-5,6-dihydro-4H-1,3-oxazin-4-yl)-4-fluorophenyl)-1-fluorovinyl)nicotinonitrile] | 1190 | 125 | 3870 | 14 |
| C[C@]1(c2cc(/C=C(\F)c3cnc(Cl)cn3)ccc2F)N=C(N)OC[C@@H]1OCC(F)(F)F [Example 110, (4R,5R)-4-(5-((Z)-2-(5-chloropyrazin-2-yl)-2-fluorovinyl)-2-fluorophenyl)-4-methyl-5-(2,2,2-trifluoroethoxy)-5,6-dihydro-4H-1,3-oxazin-2-amine] | 524 | 341 | 1500 | 90 |
| C#CCOc1cnc(/C(F)=C/c2ccc(F)c([C@@]3(C)N=C(N)OC[C@@H]3OCC(F)(F)F)c2)cn1 [Example 111, (4R,5R)-4-(2-fluoro-5-((Z)-2-fluoro-2-(5-(prop-2-yn-1-yloxy)pyrazin-2-yl)vinyl)phenyl)-4-methyl-5-(2,2,2-trifluoroethoxy)-5,6-dihydro-4H-1,3-oxazin-2-amine] | 664 | 152 | 16000 | 59 |
| C[C@]1(c2cc(/C=C(\F)c3cnc(C#N)cn3)ccc2F)N=C(N)OC[C@@H]1OCC(F)(F)F [Example 112, 5-((Z)-2-(3-((4R,5R)-2-amino-4-methyl-5-(2,2,2-trifluoroethoxy)-5,6-dihydro-4H-1,3-oxazin-4-yl)-4-fluorophenyl)-1-fluorovinyl)pyrazine-2-carbonitrile] | 970 | 119 | 6360 | 27 |
| CC#CCOc1cnc(/C(F)=C/c2ccc(F)c([C@@]3(C)N=C(N)OC[C@@H]3OCC(F)(F)F)c2)cn1 [Example 113, (4R,5R)-4-(5-((Z)-2-(5-(but-2-yn-1-yloxy)pyrazin-2-yl)-2-fluorovinyl)-2-fluorophenyl)-4-methyl-5-(2,2,2-trifluoroethoxy)-5,6-dihydro-4H-1,3-oxazin-2-amine] | 233 | 52 | 17000 | 48 |
